Results taken from patent US11208405B2, “Pyrrole derivatives as PLK1 inhibitors” (SENTINEL ONCOLOGY LIMITED, priority 2017, dated 2021).
Counter-ions that a name gives are not always drawn.

How the values were obtained:
HeLa cells = experiment: Arresting cells in mitosis (Mitotic Index, phosphorylated Histone H3 immunofluorescence); assay type: cell-based; conditions: HeLa cell line, 24 hours; for EC50: Homo sapiens, Mitotic Index, read-out: EC50
Procedure: Assay to Measure the Effects of Compounds of the Invention on Arresting Cells in Mitosis
Inhibiting the ability of PLK1 to bind to its phosphopeptide binding partners through the PBD causes cells to arrest in mitosis. Experimentally, this is measured by assessing the number of cells which are in mitosis at a certain time after treatment with a PLK1-PBD inhibitor by immunofluorescent detection of phosphorylated Histone H3 (pH3), a marker which is only present in mitotic cells. PLK1-PBD inhibitors are expected to cause a dose-dependent increase in pH3-positive cells, which is reported as Mitotic Index (MI)—the percentage of cells which, at a given time, are positive for this mitotic mark. The following protocol has been used to measure MI: • 1. Plate HeLa cells at 10,000/well in 100 μL/well in clear flat-bottom 96-well plates and incubate overnight. • 2. Immediately prior to treatment, dilute compounds in medium in a 96-well round-bottom plate. Make up all compounds at 5 times final desired concentration on cells, and serially dilute 1:2 across the plate ensuring that there is 100 μL of each concentration (start with 200 μl of the top concentration on the left of the plate). […] Treat cells by adding 25 μL from the compound dilution plate to triplicate wells. • 4. Incubate cells with compound for 24 hours. • 5. After 24 hours, fixation and staining is carried out as follows: • 6. Dilute 37% formaldehyde in PBS to give a 12.95% solution by adding 3.5 mL formaldehyde to 6.5 mL of PBS. • 7. Add 50 μL of formaldehyde fixation solution directly to each well of cells (which already contain 125 μL medium). • 8. Incubate at room temp for 10 minutes. • 9. Remove fixative and add 100 μL/well PBS+0.1% Triton X-100 for 10 minutes. • 10. Aspirate and add 100 μL/well PBS+1% BSA. • 11. Aspirate and add 50 μL/well of primary antibody (anti-PH3 [1:2000]/anti-MPM2 [1:1000]) diluted in PBS+1% BSA. Incubate for 1 hour. • 12. Wash×2 with 100 μL/well PBS+1% BSA. • 13. Add 50 μL/well of secondary antibody plus Hoechst stain (anti-rabbit Alexafluor 488 [1:500]; anti-mouse Alexafluor 546 [1:500]+Hoechst 33342 [1:2500 final concentration=4 μg/mL])diluted in PBS+1% BSA. Incubate for 1 hour. • 14. Wash twice with 100 μL/well PBS+1% BSA. • 15. Aspirate and add 100 μL/well PBS. Plates can be stored at 4° C. in PBS for several weeks before scanning on the Cellomics Arrayscan. […] Scan on Cellomics using Target Activation Bioapplication. • 17. MI data emerging from the Cellomic Bioapplication can be used to plot MI versus compound concentration, and subsequently used to generate an EC50 value for each compound using an appropriate graphing/curve-fitting package such as GraphPad Prism.

HCT116 cells = experiment: Effects on HCT116 colorectal cancer cell viability (cell titre blue, 72 hours); assay type: cell-based; conditions: Homo sapiens, HCT-116, HCT116 cell line
Procedure: Assay to Measure the Effects of Compounds of the Invention on HCT116 Colorectal Cancer Cell Viability
The following protocol was used to measure the effects of compounds of the invention on HCT116 cell viability.
1. HCT116 cells were grown in RPM11640 media supplemented with Glutamax and 10% FBS in a 37° C./5% CO2 incubator.
2. Growing culture of HCT116 cells were trypsinised, counted and diluted to give 10,000 cells/mL in an appropriate volume, allowing at least 6 mL of cells per plate.
3. 200 μL of PBS were added to all the outer wells of a flat-bottomed (8×12) 96-well TC plate. 100 μL of media were added only to wells in column 11 of the plates (these wells provided a blank for the cell titre blue assay). Two compounds were assayed on each plate.
4. 100 ul of 10,000 cells/mL HCT116s were plated in rows B-G of each plate.
5. The cells were incubated (37° C. 5% CO2) for 24 hours before treating with compounds.
6. An 8 mM compound stock in DMSO was prepared for all compounds to be tested. 2.5 μL of the compound stock was added to 1000 μL growth medium in a 96-well deep well block and serial dilutions were prepared across the plate by transferring 500 μL into wells containing 500 μL growth medium+0.25% DMSO to give eight concentrations of compound (this ensured a constant amount of DMSO at all concentrations of compound). When making up growth medium+DMSO, an amount of 5 ml was allowed per compound to be diluted.
7. 3 rows of cells were treated with 100 μL/well from each row on the dilution plate so that each cell plate is treated with a single compound. This gave a final volume in all wells of 200 μL and a titration of compound from a final concentration of 10 uM down to 78 nM.
8. The cells were incubated (37° C. 5% CO2) for 72 hours.
9. 5 ul cell titre blue reagent (Promega) were added to all wells except the edge wells (which contain PBS only) and incubated (37° C. 5% CO2) for 2.5-3 hours.
10. Fluorescence was measured on a suitable plate reader using a 530-570 nm filter set for excitation and a 580-620 nm filter set for fluorescence emission.
11. Data were analysed using an appropriate graphing package (such as GraphPad Prism). Data were expressed as the concentration of compound causing a 50% inhibition of cell viability or GI50.

Row | Structure (SMILES) | EC50 (HeLa cells) | GI50 (HCT116 cells) | % mitotic cells (HeLa cells)
1 | CN(C)CCNC(=O)c1cccc(-c2ccc(-c3ccccc3)n2-c2ccccc2C(F)(F)F)c1 [Example 3, hydrochloride] | 1580 nM | – | 65%
2 | CN(C)CCNC(=O)c1cccc(-c2ccc(-c3ccc(Br)cc3)n2-c2ccc(Cl)cc2C(F)(F)F)c1 [Example 4, hydrochloride] | 550 nM | – | 65%
3 | CN(C)Cc1cccc(-c2ccc(-c3ccc(Br)cc3)n2-c2ccccc2C(F)(F)F)c1 [Example 7, 1-[3-[5-(4-bromophenyl)-1-[2-(trifluoromethyl)phenyl]pyrrol-2-yl]phenyl]-N,N-dimethyl-methanamine Hydrochloride] | 2200 nM | 1060 nM | 75%
4 | CN1CCC(CNC(=O)c2cccc(-c3ccc(-c4ccc(Br)cc4)n3-c3ccccc3C(F)(F)F)c2)CC1 [Example 10] | 780 nM | 340 nM | 62%
5 | CN1CCC(NC(=O)c2cccc(-c3ccc(-c4ccc(Br)cc4)n3-c3ccccc3C(F)(F)F)c2)CC1 [Example 11, hydrochloride] | 800 nM | 360 nM | 54%
6 | CN1CC[C@@H](NC(=O)c2cccc(-c3ccc(-c4ccc(Br)cc4)n3-c3ccccc3C(F)(F)F)c2)C1 [Example 13, hydrochloride] | 750 nM | 660 nM | 71%
7 | CN1CCC(NC(=O)c2cccc(-c3ccc(-c4ccc(Br)cc4)n3-c3ccccc3C(F)(F)F)c2)C1 (stereo not drawn) [Example 14, hydrochloride] | 830 nM | – | 68%
8 | CN(C)CCCOc1cccc(-c2ccc(-c3ccc(Br)cc3)n2-c2ccccc2C(F)(F)F)c1 [Example 17, 3-[3-[5-(4-Bromophenyl)-1-[2-(trifluoromethyl)phenyl]pyrrol-2-yl]phenoxy]-N,N-dimethyl-propan-1-amine Hydrochloride] | 1450 nM | – | 65%
9 | CN(C)CCNCc1cccc(-c2ccc(-c3ccc(Br)cc3)n2-c2ccccc2C(F)(F)F)c1 [Example 18, hydrochloride] | 1640 nM | – | 67%
10 | CC(C)c1ccc(-c2ccc(-c3cccc(C(=O)NCCN(C)C)c3)n2-c2ccccc2C(F)(F)F)cc1 [Example 22, hydrochloride] | > 10000 nM | 2750 nM | 5%
11 | COCCNC(=O)c1ccc(-c2ccc(-c3ccc(Cl)cc3)n2-c2ccccc2C(F)(F)F)cc1 [Example 86, 4-[5-(4-chlorophenyl)-1-[2-(trifluoromethyl)phenyl]pyrrol-2-yl]-N-(2-methoxyethyl)benzamide] | – | 340 nM | –
12 | CN(C)CCNC(=O)c1ccc(-c2ccc(-c3ccc(Cl)cc3)n2-c2cnccc2C(F)(F)F)c(F)c1 [Example 89, hydrochloride] | – | 1360 nM | –
13 | CN(C)CCNC(=O)Nc1ccc(-c2ccc(-c3ccc(Cl)cc3)n2-c2ccccc2C(F)(F)F)cc1 [Example 90, 1-[4-[5-(4-Chlorophenyl)-1-[2-(trifluoromethyl)phenyl]pyrrol-2-yl]phenyl]-3-[2-(dimethylamino)-ethyl]urea Hydrochloride] | – | 500 nM | –
14 | O=C(c1cccc(-c2ccc(-c3ccc(Br)cc3)n2-c2ccccc2C(F)(F)F)c1)N1CCC(Cc2cccnc2)CC1 [Example 102, hydrochloride] | – | 380 nM | –

Further compounds by falling GI50 (HCT116 cells), results first:

Row | EC50 (HeLa cells) | GI50 (HCT116 cells) | Structure (SMILES) | % mitotic cells (HeLa cells)
15 | 790 nM | 290 nM | CN(C)CCN(C)C(=O)c1cccc(-c2ccc(-c3ccc(Br)cc3)n2-c2ccccc2C(F)(F)F)c1 [Example 12, hydrochloride] | 62%
16 | – | 260 nM | CN(C)CCNC(=O)c1ccc(-c2[nH]nc(-c3ccc(Cl)cc3)c2-c2ccccc2C(F)(F)F)cc1 [Example 93, 4-[3-(4-chlorophenyl)-4-[2-(trifluoromethyl)phenyl]-1H-pyrazol-5-yl]-N-[2-(dimethylamino)ethyl] Benzamide Hydrochloride] | –
17 | – | 250 nM | CN1CCN(CCNC(=O)c2ccc(-c3ccc(-c4ccc(Cl)cc4)n3-c3ccccc3C(F)(F)F)cc2)CC1 [Example 88, hydrochloride] | –
18 | 660 nM | 200 nM | CN(C)CCNC(=O)c1cccc(-c2ccc(-c3ccc(Br)cc3)n2-c2cnccc2C(F)(F)F)c1 [Example 6] | 86%
19 | – | 160 nM | CN(C)CCNC(=O)C(C)(C)c1ccc(-c2ccc(-c3ccc(Cl)cc3)n2-c2ccccc2C(F)(F)F)cc1 [Example 107, hydrochloride] | –
20 | – | 150 nM | O=C(NCCN1CCOCC1)c1ccc(-n2ncc(-c3ccc(Cl)cc3)c2-c2ccccc2C(F)(F)F)cc1 [Example 104, hydrochloride] | –
21 | – | 130 nM | O=C(Cc1ccc(-c2ccc(-c3ccc(Cl)cc3)n2-c2ccccc2C(F)(F)F)cc1)NCCN1CCOCC1 [Example 100, hydrochloride] | –
22 | – | 100 nM | CN(C)CCCNC(=O)c1ccc(-n2ncc(-c3ccc(Cl)cc3)c2-c2ccccc2C(F)(F)F)cc1 [Example 105, hydrochloride] | –
23 | – | 80 nM | O=C(NCCN1CCOCC1)c1ccc(-c2ccc(-c3ccc(Cl)cc3)n2-c2ccccc2C(F)(F)F)cc1 [Example 95, hydrochloride] | –
24 | – | 80 nM | CN(C)CCNC(=O)c1ccc(-n2ncc(-c3ccc(F)cc3)c2-c2ccccc2C(F)(F)F)cc1 [Example 106, hydrochloride] | –
25 | – | 60 nM | O=C(Cc1ccc(-c2ccc(-c3ccc(Cl)cc3)n2-c2ccccc2C(F)(F)F)cc1)NCCN1CCNCC1 [Example 101, hydrochloride] | –
26 | – | 50 nM | NCCNC(=O)c1ccc(-c2ccc(-c3ccc(Cl)cc3)n2-c2ccccc2C(F)(F)F)cc1 [Example 94, hydrochloride] | –
27 | – | 40 nM | CN(C)CCNC(=O)c1ccc(-c2ccc(-c3ccc(Cl)cc3)n2-c2ccccc2C(F)(F)F)s1 [Example 99, hydrochloride] | –
28 | – | 40 nM | C[C@@H](CNC(=O)c1ccc(-c2ccc(-c3ccc(Cl)cc3)n2-c2ccccc2C(F)(F)F)cc1)N(C)C [Example 103] | –
29 | – | 30 nM | CN(C)CCNC(=O)c1ccc(-c2onc(-c3ccc(Cl)cc3)c2-c2ccccc2C(F)(F)F)cc1 [Example 92, Hydrochloride] | –
30 | – | 30 nM | O=C(NCCN[C@H]1CCOC1)c1ccc(-c2ccc(-c3ccc(Cl)cc3)n2-c2cnccc2C(F)(F)F)cc1 [Example 96] | –
31 | – | 20 nM | CN(C)CCNC(=O)c1ccc(-c2ccc(-c3ccc(Cl)cc3)n2-c2ccc(F)cc2C(F)(F)F)cc1 [Example 97, hydrochloride] | –
32 | – | 20 nM | CN(C)CCNC(=O)c1ccc(-c2ccc(-c3ccc(Cl)cc3)n2-c2ccc(Cl)cc2C(F)(F)F)cc1 [Example 98, hydrochloride] | –
